Reference: patent US10570124B2, “Deoxycytidine kinase binding compounds” (THE REGENTS OF THE UNIVERSITY OF CALIFORNIA, priority 2016, dated 2020)
Entries after “also recorded” stand apart in the source; their conditions may differ. Like-named read-outs stand apart in the source and are kept apart here.

Assays:
[1] = tested on: p185BCR-ABL/Arf-/- pre-B ALL cells; assay: Acute lymphoblastic leukemia (ALL) model, bioluminescence imaging; assay type: in vivo, NSG mice; conditions: 50 mg/kg, days 4, 6, 8, 11 after inoculation
Description: The efficacy of Compound 9R and (R)-DI-82 single agent therapy against short-term cultures of murine BCR-ABL (p185), Arf^−/− pre-B ALL cells (p185^BCR-ABL/Arf^−/−) was assessed. This assay was previously described in Boulos, N. et al., 2011. “Chemotherapeutic agents circumvent emergence of dasatinib-resistant BCR-ABL kinase mutations in a precise mouse model of Philadelphia chromosome-positive acute lymphoblastic leukemia, Blood, 117:3585-3595 and Nathanson, D. 2014 “Co-targeting of convergent nucleotide biosynthetic pathways for leukemia eradication” J. Exp. Med. 211(3): 473-486, all of which are incorporated herein by reference.
Bioluminescent imaging and data analysis were performed using a Xenogen IVIS-200 system and Living Image Version 3.01 software (Caliper Life Sciences). […] Total flux measurements (photons/second) were quantified over the whole-animal body or a contour drawn around a target organ. […]
To evaluate the efficacy of Compound 9R and (R)-DI-82 in an in vivo B-ALL model, firefly luciferase—marked p185^BCR-ABL/Arf^−/− cells were inoculated intravenously in NSG mice. 4 days, 6 days, 8 days and 11 days after inoculation, bioluminescence imaging (BLI) of firefly luciferase-marked p185^BCR-ABL/Arf^−/− ALL-bearing NSG mice treated with 50 mg/kg compound 9R or 50 mg/kg (R)-DI-82 were measured. […]

dCK [2] = target: dCK (Mus musculus, UniProt P43346); assay: Inhibition of dCK activity in vivo by [18F]L-FAC PET/CT imaging; conditions: mice, IP injection, [18F]L-FAC 4 h after treatment
Description: [^18F]L-FAC PET/CT scans were performed as described in Shu, C.

dCK [3] = target: T1, dCK (Homo sapiens, UniProt P27707); assay: Inhibition of [3H]-deoxycytidine (dCyd) uptake by CEM cells; assay type: cell-based; conditions: read-out: dCKi-IC-50
T1 construct: endogenous in cells; host or cells: CEM cells
Description: 50,000 CEM cells/well were added to Millipore MultiScreen GV 96 well plates. Cells were resuspended at […] and incubated for 30 minutes at 37° C. The drug dilution plate was prepared by starting with an initial drug concentration of 10 mM in DMSO, and proceeding to make 1:5 dilutions for drug. […] and mixed by pipetting 10 times before removing 10 uL for next well (1:5 serial dilutions). The media and tritiated deoxycytidine was mixed together. […] of media/probe mixture was added to each well of an Optiplate. […] from drug plate was added to each well in the Optiplate to obtain drug/media/probe mixture and mixed. […] of drug/media/probe mixture from Optiplate was added to the cell plate and incubate at 37° C. for 1 hour. The cell plate was placed on vacuum to aspirate, and then washed with ice cold PBS: […] 1×PBS 4 times. The backing of the plate was peeled off, and the plate was placed in dryer for at least 30 minutes or until dry at 37° C. […] Scintillation fluid per well was added, and the plate was sealed with clear plate seal. The plate was read on the Microbeta instrument.

[4] = tested on: HUKEMIA Acute Myeloid Leukemia model AM-7577; assay: Acute myeloid leukemia study, HUKEMIA model AM-7577 in NOD/SCID mice; assay type: in vivo, Mus Musculus; conditions: for ILS (increase in life-span): vs vehicle group
Description: In this study, NOD/SCID mice were injected (i.v.) with cells from a human donor diagnosed with AML (IDH2, FLT3-ITD, DNMT3A, and CEBPA mutations identified). Tumor burden was assessed by evaluation of human CD45 positive leukemia cells using FACS. The primary end point was animal survival. Median survival time (MST) and increase in life-span (ILS) were calculated for all animals.
The animals were inoculated HUKEMIA® Model AM-7577. The vehicle and treatment injections were started on Day 9 post cell inoculation Day 10 post cell inoculation, respectively.
Weekly Monitoring: Body weight was monitored twice a week. Human leukemia cells was detected by FACS weekly by CD45.
Endpoints and/or Termination: The end points varied according to the tumor burden growth in Vehicle group. The major end point was animal survival. The survival of all animals was followed and median survival time (MST) was calculated for each group. The increase in life-span (ILS) was calculated as follows: ILS (%)=100×[(Median Survival Time of drug treated group/Median Survival Time of vehicle group)−1](%).
Statistical Analysis: Data was evaluated using one way ANOVA. All data was analyzed using Prism 5.0 and IBM SPSS Statistics 19.0. p<0.05 was considered to be statistically significant.

T1 sequence (P27707 whole entry): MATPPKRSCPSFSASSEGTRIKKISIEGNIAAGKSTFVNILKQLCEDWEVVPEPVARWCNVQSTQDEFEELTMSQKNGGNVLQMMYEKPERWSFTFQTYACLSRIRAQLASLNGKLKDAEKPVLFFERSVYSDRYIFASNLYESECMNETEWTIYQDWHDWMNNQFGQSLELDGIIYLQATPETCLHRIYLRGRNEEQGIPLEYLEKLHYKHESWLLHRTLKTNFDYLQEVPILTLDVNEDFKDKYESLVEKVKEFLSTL
Chain of dCK (Mus musculus, UniProt P43346) (P43346 whole entry): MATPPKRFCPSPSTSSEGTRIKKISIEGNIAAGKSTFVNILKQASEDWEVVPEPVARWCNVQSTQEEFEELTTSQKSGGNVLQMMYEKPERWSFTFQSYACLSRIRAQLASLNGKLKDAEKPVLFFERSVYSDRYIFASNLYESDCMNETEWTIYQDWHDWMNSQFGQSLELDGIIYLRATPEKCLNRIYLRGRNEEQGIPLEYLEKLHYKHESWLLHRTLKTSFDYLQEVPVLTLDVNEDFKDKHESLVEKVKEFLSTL

| SMILES | efficacy in the p185BCR-ABL/Arf-/- ALL model (bioluminescence) [1] | inhibition of dCK activity in vivo ([18F]L-FAC PET/CT) (dCK [2]) | IC50 (dCK [3]; [3H]-dCyd uptake) | IC50 (dCK [3]; [3H]dC uptake, 0 mg/mL BSA) | IC50 (dCK [3]; [3H]dC uptake, 25 mg/mL BSA) | IC50 (dCK [3]; [3H]dC uptake, 50 mg/mL BSA) | tumor burden growth (human CD45 by FACS) ([4]; 25 mg/Kg) | Median survival ([4]; 25 mg/kg po BID x 46 days) | ILS (increase in life-span) ([4]; 25 mg/kg po BID) | tumor burden growth (human CD45 by FACS) ([4]; 50 mg/Kg) | Median survival ([4]; 50 mg/kg po BID x 46 days) | ILS (increase in life-span) ([4]; 50 mg/kg po BID) | tumor burden growth (human CD45 by FACS) ([4]; 100 mg/Kg) | Median survival ([4]; 100 mg/kg po BID x 46 days) | ILS (increase in life-span) ([4]; 100 mg/kg po BID) | tumor burden in peripheral blood vs vehicle ([4]; 100 mg/kg, day 44 post cell inoculation, p=0.021) |
| --- | --- | --- | --- | --- | --- | --- | --- | --- | --- | --- | --- | --- | --- | --- | --- | --- |
| COc1ccc(-c2nc([C@@H](C)Sc3nc(N)cc(N)n3)c(C)s2)cc1OCCNS(C)(=O)=O [(R)-DI-82, (R)—N-(2-(5-(4-(1-(4,6-diaminopyrimidin-2-ylthio)ethyl)-5-methylthiazol-2-yl)-2-methoxyphenoxy)ethyl)methanesulfonamide] | show efficacy |  |  |  |  |  |  |  |  |  |  |  |  |  |  |  |
| COc1ccc(-c2nc([C@@H](C)Sc3nc(N)cc(N)n3)c(C)s2)cc1OCCN1CCOCC1 [Compound 9R, (R)-2-(1-(2-(4-methoxy-3-(2-morpholinoethoxy)phenyl)-5-methylthiazol-4-yl)ethylthio)pyrimidine-4,6-diamine] |  | strongly inhibit dCK activity in vivo; also recorded: greater inhibition of dCK | 3.15 nM | 4.03 nM | 6.87 nM | 11.6 nM | significant increase post cells inoculation day 29 | 49 days | 0% | slowly increased during Day 29 to Day 44 post cell inoculation | 54 days | 10% | slowly increased during Day 29 to Day 44 post cell inoculation | 54 days | 10% | significant antitumor effects |
| COc1ccc(-c2nc([C@H](C)Sc3nc(N)cc(N)n3)c(C)s2)cc1OCCN1CCOCC1 [Compound 9S, (S)-2-(1-(2-(4-methoxy-3-(2-morpholinoethoxy)phenyl)-5-methylthiazol-4-yl)ethylthio)pyrimidine-4,6-diamine] |  |  | 468 nM |  |  |  |  |  |  |  |  |  |  |  |  |  |
